The source made the active and inactive calls. The calls are words filed in the database; no cut-off is given here.

Experimental findings from ChEMBL document CHEMBL3853273, “Multi-target screening mines hesperidin as a multi-potent inhibitor: Implication in Alzheimer's disease therapeutics” (Eur J Med Chem, 2016) are described below.

Assay [1] deals with Amyloid-beta precursor protein (Homo sapiens) (UniProt P05067). Put plainly: Inhibition of amyloid beta (25 to 35 residues) (unknown origin) aggregation at 20 uM incubated for 3 days by 8-anilino-1-naphthalene-based fluorescence spectrophotometric method.
In assay [2] the target is Beta-secretase 1 (Homo sapiens) (UniProt P56817). Put plainly: Binding affinity to BACE1 (unknown origin) in PBS at pH 7.4 up to 10 uM by steady state spectrofluorimeter.
Assay [3] addresses Amyloid-beta precursor protein (Homo sapiens) (UniProt P05067). Put plainly: Inhibition of amyloid beta (25 to 35 residues) (unknown origin) aggregation at 100 uM incubated for 7 days by atomic force microscopic method.
The target is the same in assay [4]. Put plainly: Inhibition of amyloid beta (25 to 35 residues) (unknown origin) aggregation at 20 uM incubated for 3 days by intrinsic flavonoid fluorescence assay.
For assay [5] the target is unchanged. Put plainly: Inhibition of amyloid beta (25 to 35 residues) (unknown origin) aggregation at 10 uM incubated for 3 days by thioflavin T-based fluorescence spectrophotometric method relative to control.
For assay [6] the target is unchanged. Put plainly: Inhibition of amyloid beta (25 to 35 residues) (unknown origin) aggregation at 20 uM incubated for 3 days by thioflavin T-based fluorescence spectrophotometric method.
Assay [7] concerns the target Beta-secretase 1 (Homo sapiens) (UniProt P56817). As to the kind of experiment: Binding affinity to BACE1 (unknown origin) by fluorescence titration method.
Assay [8] can be described thus: Antioxidant activity of the compound assessed as ABTS free radical scavenging activity. Type of assay: functional.
For assay [9], the target named is Beta-secretase 1 (Homo sapiens) (UniProt P56817). As to the kind of experiment: Inhibition of BACE1 (unknown origin) at 500 nM incubated for 2 hrs by FRET assay relative to control.
Assay [10] has the same target. Put plainly: Binding affinity to BACE1 (unknown origin) in acetate buffer at pH 4.8 assessed as increase in lifetime species of excited tryptophan in active site at 5 uM by time-resolved fluorescence spectroscopy relative to control.
The target is the same in assay [11]. As to the kind of experiment: Binding affinity to BACE1 (unknown origin) in acetate buffer at pH 4.8 at 250 nM by steady state spectrofluorimeter.
The target is the same in assay [12]. Put plainly: Binding affinity to BACE1 (unknown origin) in acetate buffer at pH 4.8 at 0.25 to 5 uM by steady state spectrofluorimeter.
A short description of assay [13]: Antioxidant activity of the compound assessed as inhibition of fenton reaction-induced DNA strand cleavage of plasmid pcDNA Hismyc B4 at 250 uM after 1 hr by ethidium bromide staining-based agarose gel electrophoresis. Type of assay: functional.
A short description of assay [14]: Antioxidant activity of the compound assessed as inhibition of fenton reaction-induced DNA strand cleavage of plasmid pcDNA Hismyc B4 after 1 hr by ethidium bromide staining-based agarose gel electrophoresis. Type of assay: functional.

Chain of Amyloid-beta precursor protein (Homo sapiens) (P05067 whole entry, the tested form may be a part): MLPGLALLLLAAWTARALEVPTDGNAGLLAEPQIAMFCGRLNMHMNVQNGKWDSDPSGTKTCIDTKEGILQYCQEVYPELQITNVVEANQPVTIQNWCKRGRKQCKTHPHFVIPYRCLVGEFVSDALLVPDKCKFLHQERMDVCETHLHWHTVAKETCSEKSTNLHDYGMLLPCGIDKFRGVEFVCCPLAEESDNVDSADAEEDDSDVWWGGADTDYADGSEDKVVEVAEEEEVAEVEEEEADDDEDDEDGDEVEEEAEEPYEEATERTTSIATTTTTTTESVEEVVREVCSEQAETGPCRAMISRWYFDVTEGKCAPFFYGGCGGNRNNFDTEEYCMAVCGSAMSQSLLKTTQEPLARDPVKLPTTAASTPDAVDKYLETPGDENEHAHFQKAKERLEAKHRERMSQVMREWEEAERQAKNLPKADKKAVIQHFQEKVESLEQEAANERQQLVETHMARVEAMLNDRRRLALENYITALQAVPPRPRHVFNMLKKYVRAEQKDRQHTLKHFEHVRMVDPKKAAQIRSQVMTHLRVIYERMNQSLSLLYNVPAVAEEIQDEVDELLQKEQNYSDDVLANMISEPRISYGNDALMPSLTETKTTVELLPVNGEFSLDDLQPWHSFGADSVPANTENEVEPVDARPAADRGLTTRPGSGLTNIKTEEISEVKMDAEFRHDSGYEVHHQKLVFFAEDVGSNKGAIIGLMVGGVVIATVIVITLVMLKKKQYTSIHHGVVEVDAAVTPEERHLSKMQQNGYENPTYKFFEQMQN
Chain of Beta-secretase 1 (Homo sapiens) (P56817 whole entry, the tested form may be a part): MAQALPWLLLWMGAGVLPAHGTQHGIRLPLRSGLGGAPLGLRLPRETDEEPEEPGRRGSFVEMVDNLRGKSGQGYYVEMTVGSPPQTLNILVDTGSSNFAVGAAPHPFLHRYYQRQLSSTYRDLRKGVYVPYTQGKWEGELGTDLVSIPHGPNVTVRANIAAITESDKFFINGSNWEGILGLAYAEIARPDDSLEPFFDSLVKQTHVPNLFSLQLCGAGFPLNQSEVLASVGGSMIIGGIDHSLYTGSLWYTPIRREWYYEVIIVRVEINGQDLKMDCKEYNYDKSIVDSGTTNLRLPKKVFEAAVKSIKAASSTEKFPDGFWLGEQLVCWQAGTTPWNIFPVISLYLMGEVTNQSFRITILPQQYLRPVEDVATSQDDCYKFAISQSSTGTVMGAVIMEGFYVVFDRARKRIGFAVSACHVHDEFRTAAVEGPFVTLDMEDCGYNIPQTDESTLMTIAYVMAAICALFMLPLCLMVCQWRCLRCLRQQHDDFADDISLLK

With `COc1ccc([C@@H]2CC(=O)c3c(O)cc(O[C@@H]4O[C@H](CO[C@@H]5O[C@@H](C)[C@H](O)[C@@H](O)[C@H]5O)[C@@H](O)[C@H](O)[C@H]4O)cc3O2)cc1O` [HESPERIDIN], the inhibition entry in assay [1], in assay [3], in assay [4], in [6] and in [13] was “Active” each time. The result in assay [2], in [11] and in assay [12] was Active. Also, the inhibition in assay [5] worked out at 40%; in assay [9], 100%. The compound further showed a K in assay [7] of 302000. Besides, the Activity entry in [8] was “Dose-dependent effect”. For the same compound, the IC50 in assay [8] is 16.5 µM. In addition, the fold change (FC) in assay [10] was found to be 2.5.

Turning to `Cc1c(C)c2c(c(C)c1O)CCC(C)(C(=O)O)O2` (stereo not given), the inhibition result in [14] was “Active”.
